Measured values: BindingDB's records for patent US12378249 (Genentech, 2025)

What was measured:
[1] = molecular target: Mitogen-activated protein kinase kinase kinase kinase 1 (Homo sapiens, UniProt Q92918); test: HPK1 Lantha Binding Assay (“Lanth”)
Experimental: (§1) Assay Condition:The following assay concentrations and times were used: 2 nM HPK1, 2 nM Eu-Anti-GST Ab, and 15 nM Tracer222, with 60 min incubation time.HPK Lantha Binding Assay:For the binding assay, 4 ul 2X HPK1 and Eu-anti-GST antibody were added to each well of the assay plate using a Multidrop reagent dispenser. The solutions were incubated in a 23 C incubator for 1 h. To each well of the assay plate was added 4 ul 2× Tracer-222 using a Multidrop reagent dispenser. The solutions were again incubated in a 23 C incubator for 1 h. The results of the assay were read using an Envision plate reader with the following parameters:TR_FRET, 340ex/615 and 665em; 100 usec Delay; and 200 usec integration.

[2] = molecular target: T1, Mitogen-activated protein kinase kinase kinase kinase 1 [T165E,S171E] (Homo sapiens, UniProt Q92918, S171E/T165E); test: HPK1 Lantha Binding Assay (“Lanth”)
T1 construct: gene MAP4K1
Experimental: as §1

Sequence of Mitogen-activated protein kinase kinase kinase kinase 1 (Q92918 whole entry): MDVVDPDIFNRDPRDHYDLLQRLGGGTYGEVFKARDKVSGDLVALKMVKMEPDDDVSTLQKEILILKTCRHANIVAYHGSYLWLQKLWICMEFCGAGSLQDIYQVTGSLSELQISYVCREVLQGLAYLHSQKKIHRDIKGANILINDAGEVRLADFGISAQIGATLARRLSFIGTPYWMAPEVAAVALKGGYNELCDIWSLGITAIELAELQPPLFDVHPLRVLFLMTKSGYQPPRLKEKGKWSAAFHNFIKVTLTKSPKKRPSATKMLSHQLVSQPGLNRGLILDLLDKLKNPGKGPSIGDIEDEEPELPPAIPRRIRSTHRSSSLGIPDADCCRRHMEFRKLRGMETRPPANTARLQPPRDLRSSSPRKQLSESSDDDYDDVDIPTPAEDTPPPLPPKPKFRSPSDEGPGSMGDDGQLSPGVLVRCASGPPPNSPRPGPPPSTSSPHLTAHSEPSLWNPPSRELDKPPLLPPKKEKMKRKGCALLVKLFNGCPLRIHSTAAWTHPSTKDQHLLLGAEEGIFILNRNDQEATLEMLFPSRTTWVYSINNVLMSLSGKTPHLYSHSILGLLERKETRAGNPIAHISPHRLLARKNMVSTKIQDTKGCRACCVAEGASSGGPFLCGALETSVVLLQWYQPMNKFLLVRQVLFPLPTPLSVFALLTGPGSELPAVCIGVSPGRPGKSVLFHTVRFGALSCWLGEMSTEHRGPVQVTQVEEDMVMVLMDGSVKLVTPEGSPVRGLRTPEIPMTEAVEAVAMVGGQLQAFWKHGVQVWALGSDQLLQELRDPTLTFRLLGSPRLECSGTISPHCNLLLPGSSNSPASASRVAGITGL
T1 sequence (Q92918 whole entry T165E/S171E, looked up): as the sequence (Q92918 whole entry) above, with T165E, S171E counted along it

Row | Compound | Ki [1] [nM] | Ki [2] [nM]
1 | CCc1ccnc(Nc2cc3cc(-c4cnccc4C)ccc3cn2)c1 [US12378249, Compound 105] | 6 | 
2 | Cc1c(N)cncc1-c1cc2cc(Nc3cc4n(n3)CC(=O)N(CCN3CC(O)C3)CC4)ncc2cc1F [US12378249, Compound 165] |  | 0.013
